Data taken from patent US10782294B2, “Peptides derived from myosin 19 and methods of use thereof” (TECHNION RESEARCH & DEVELOPMENT FOUNDATION LIMITED, priority 2014, dated 2020).
Entries after “also recorded” stand apart in the source; their conditions may differ. Read-outs that look alike come from different tables or passages of the source. Values belong to the molecule of their own block, whether it stands above or below them.

Assays:
[1] = test system: Myo19-eGFP expressing U2OS cells; assay: Myo19 foci formation / translocation to cell periphery in Myo19-eGFP expressing cells treated with cytoskeleton interfering drugs; format: cell-based
Protocol: Cells were rinsed once and incubated in starvation medium (Glucose free DMEM supplemented with 20 mM Hepes-KOH pH 7.4, 5 mg/ml BSA, 100 U/ml penicillin, 100 μg/ml streptomycin and 0.25 μg/ml amphotericin B). Cytoskeleton interfering drugs (final concentration: 0.2 μM Latrunculin B or 0.75 μg/ml Nocodazole) were first diluted in growth media and then added to the cells.
(§1) Transfections were performed using Polyethylenimine (PEI). Adherent U2OS cells were plated a day before transfection on plastic or glass bottom dishes and allowed to adhere overnight (ON). Plasmid DNA and PEI were diluted separately in 150 mM NaCl, combined and complex formation was allowed for 25 min at RT before addition to the cells and incubation ON. Hoechst 33342 (0.75 μg/ml Sigma), MitoTracker (30 nM, Molecular probes) and Propidium iodide (1 μg/ml, Sigma) were added 15 min prior to imaging. HaloTag constructs were stained by incubating the cells with HaloTag TMR Ligand ON (25 nM, Promega). The cells were imaged using InCell Analyzer 2000, Confocal Zeiss LSM 700 or Confocal Zeiss LSM 710 in an environmental chamber.
Mitochondria function as an intracellular biosensor that responds to environmental changes, stress cues and physiological stimuli. Therefore, it is essential to test the function of myosin 19 and its relation to mitochondrial distribution and morphology in cells under starvation conditions as well under drugs, which disrupt cytoskeletal structures. Starvation stress was chosen because it strongly shifts mitochondrial dynamics of fission and fusion, inducing hyperfusion of the mitochondrial network, and that fission and fusion depend on force generation on the mitochondria. Therefore, it was assessed whether or not starvation-induced hyperfusion is accompanied by any differential cellular localization of myosin 19. Myosin 19-eGFP was overexpressed and cells were starved for four hrs. […] The inventors further tested if myosin 19 OMM binding motif is essential for this starvation-induced localization (FIG. 3A, middle two panels). […] This lends further support to the interpretation that myosin 19^Δ860-890-eGFP cannot compete with the endogenous myosin 19 because of its inability to bind the mitochondria. The inventors further assessed whether this transition of myosin 19 to the cell periphery requires myosin 19 motor activity utilizing an overexpression of myosin 19 tail (FIG. 3A, bottom two panels, FIG. 8) and an ATPase dead mutant G 135R (FIG. 9, FIG. 8). […] Indeed, pre-treatment of cells with 0.2 μM Latrunculin B that disrupts actin filaments of the cytoskeleton for 30 min inhibited the starvation-induced translocation of myosin 19 and the mitochondria to the cell periphery (FIG. 3B, FIG. 10). […]

[2] = molecular target: lipid SUVs with a phospholipid composition similar to the OMM (55% PC, 30% PE, 13% PI, 2% DOPS); assay: Equilibrium binding of peptides to OMM mimicking vesicles by fluorescence anisotropy
Protocol: (§2) Phosphatidylcholine (PC, Sigma), Phosphatidylethanolamine (PE, Sigma), Phosphatidylinositol (PI, Sigma) and Dioleoyl phosphatidylserine (DOPS, Avanti) were mixed in chloroform and evaporated under nitrogen. The vesicles were then resuspended in 40 mM Hepes pH 7.1, 150 mM NaCl and subjected to 10 freeze-thaw cycles in liquid nitrogen and kept in −80° C. The vesicles were thawed and sonicated for five min at low intensity; insoluble material was removed by centrifugation at 100,000×gav for 20 min. Vesicles were used within two days after sonication.
(§3) Equilibrium binding by Fluorescence Anisotropy (FA) measurements was performed with PCI spectrofluorimeter (ISS, Champaign, Ill.) designed as T-format for simultaneous acquisition on two emission channel monochromators equipped with automatic polarizers. Samples were equilibrated (60 min, RT) and then measurements were done with intrinsic fluorescence of the peptide with λex=280 nm using vertical polarized light and the emitted vertical and horizontal polarized light was monitored at 90° with double emission monochromators at λem=325 nm. (i-factor for correction of the different gain between the dual PMT detectors was calculated as described by the instrument manufacturer. The binding model for a simple bimolecular reaction was:
[formula] [formula] Under the condition of Ptot<<KD then the general solution for this equilibrium binding scheme is in the form of the following quadratic equation:
[formula] Ptot is monitoring species; Vtot is titrating species and [PV] is the bound species. The total fluorescence and anisotropy were fitted globally (Origin Lab 9.0) according to Otto et al. Biophys J, 1994. 67(6): p. 2511-21.
Myo19 peptides were purchased as crude preparations and resuspended in 10% Acetonitrile (ACN) and either 0.1% (for Myo19^851-895) or 0.01% (for Myo19^858-883 and Myo19^858-RK883SS) trifluoroacetic acid (TFA). The peptides were then loaded on a C-18 column (Waters) and separated by reverse phase chromatography. Peaks were analyzed by MALDI-TOF and verified to be of the right molecular weight corresponding to the peptide size. The peptides were then dried and resuspended in either 5% DMF (Myo19^858-883 and Myo19^RK883SS) or 16% DMF (Myo19^851-895) in binding buffer (40 mM Hepes pH 7.1, 150 mM NaCl). Myo19^851-895, Myo19^858-883, Myo19^858-RK883SS peptides were from GL Biochem (Shanghai, China). Zeta1 was from Sigma (Saint Louis, Mo., USA).
To characterize Myo19 membrane binding motif, the binding of a synthetic peptide representing Myo19 residues 851-895 (SEQ ID NO: 12, Table 3) to lipid SUVs (Small unilamellar vesicles) with a phospholipid composition similar to the OMM (55% PC, 30% PE, 13% PI, 2% DOPS (de Kroon et al., 1997)) was tested. Binding was followed via fluorescence anisotropy (FA) relying on two tryptophan residues that are present in the peptide. […] Equilibrium binding of Myo19 peptide to vesicles was monitored by titrating peptide versus increasing vesicles concentration. […] Therefore, to account for the FTI change during the FA measurements, global fitting to both signals arising from peptide binding to vesicles to compensate for the change in fluorescence yield during FA measurements was applied. […] In-vitro binding of a hydrophilic peptide Zeta1 (SEQ ID NO:15, Table 3), was much weaker (˜2.5 folds) compared to the Myo19 peptide (124.4±18.7 μM), supporting the notion that Myo19-OMM binding is mediated by hydrophobic interactions (FIG. 23). Although our newly identified membrane motif is essential and sufficient for OMM localization in cells, the cellular specificity may be achieved by unique, yet unidentified cytosolic or others mitochondrial components.

[3] = molecular target: ER mimicking vesicles (20% PE, 66 & PC, 9% PI, 3% DOPS); assay: Equilibrium binding of peptides to ER mimicking vesicles by fluorescence anisotropy; conditions: FA/FTI global fit; peptide concentrations 4 μM; N=1; read-out: affinity to ER mimicking vesicles
Protocol: as §2, §3
[formula] […]

[4] = test system: mitochondria (MitoTracker) or ER; assay: Colocalization of eGFP-fused myosin 19 tail constructs with mitochondria (MitoTracker) or ER (SRβ); format: cell-based; conditions: myosin 19^824-970-eGFP and mutant variants ectopically expressed
Protocol: Generation of peGFP-myosin 19 mutations and truncations were performed using high fidelity PCR enzymes with phosphorylated primers (Phusion, T4 PNK, NEB). We used peGFP-myosin 19 (peGFP-N1b was kindly provided by Dr. Ayoub (Technion-IIT)) or peGFP-myosin 19 tail (aa 824-970) as template with a single exception for peGFP-myosin 19^860-890 where peGFP-myosin 19^860-970 was used. The products were ligated using T4 ligase (NEB, Promega) and sequenced.
as §1
In accordance to the finding in the cells (FIG. 2A), Myo19^860-890-eGFP was co-purified with mitochondria, however unlike the endogenous Myo19, it appears to be more sensitive to extraction by salt. Carbonate completely extracts Myo19^860-890-eGFP from purified mitochondria, similarly to endogenous Myo19 (FIG. 22). The difference in salt sensitivity may be due to insufficient length of the motif to be fully anchored in the membrane as in the WT endogenous protein. Another possibility is that a certain part of Myo19^860-890-eGFP was correctly anchored, where the rest was present there nonspecifically, e.g. through dimerization of eGFP. […] To further explore the OMM targeting the motif sequence was examined. Although there is no consensus sequence targeting proteins to the OMM, it was shown that a moderately hydrophobic motif flanked by positive residues is required for OMM localization. […]

[5] = FA/FTI global fit, peptide concentrations 4 μM, N=1, read-out: affinity to OMM mimicking vesicles

Molecule: C/C1=C/C(=O)O[C@@H]2C[C@@H](CC[C@H](C)/C=C\CC1)O[C@@](O)([C@@H]1CSC(=O)N1)C2 [Latrunculin B]
cells showing <2 Myo19 foci ([1]; 0.2 μM latrunculin B 30 min prior to starvation): < 30 % of the cells | starvation-induced translocation of myosin 19 and the mitochondria to the cell periphery ([1]; 0.2 μM, 30 min pre-treatment, then starvation): inhibited

Molecule: COC(=O)Nc1nc2ccc(C(=O)c3cccs3)cc2[nH]1 [nocodazole]
localization of myosin 19 and mitochondria after nocodazole treatment ([1]; 0.75 μg/ml nocodazole for three hrs, no starvation): induced the same altered localization | cells with induced Myo19 foci formation ([1]; nocodazole treatment, complete media conditions): > 80 % of the cells

Kd [2, 5]: 45 ± 14.1 µM | Kd [3]: 50.5 ± 22 µM
Molecule: EAIIRLWPLGLVLANTAMGVGSFQRK [Myo19^858-883, shorter peptide derived from Myo19 membrane motif]

Kd [2, 5]: 49 ± 17.2 µM
Molecule: EAIIRLWPLGLVLANTAMGVGSFQSS [Myo19^858-RK882/3SS, corresponding ER mutant of the shorter Myo19 peptide]

Molecule: FRWGKPVGKKRRPVKVYPNGAEDESAEAFPLE [Zeta1, reference compound]
Kd [2, 5]: 124 ± 18.7 µM | binding weaker compared to the Myo19 peptide ([2]; Zeta1 versus Myo19 peptide): ~2.5 folds

Molecule: IIRL*WPLGLVLANTAMGVGSF*QSSLVVWACL (IIRLWPLGLVLANTAMGVGSFQSSLVVWACL) [RK882/3SS, myosin 19 tail-eGFP construct with R882S and K883S in combination]
Localization ([4]; listed as SEQ ID NO: 10): shift of the intracellular localization of Myo19 to the ER

Molecule: IIRL*WVLGLVLANTAMGVGSF*QRKLVVWACL (IIRLWVLGLVLANTAMGVGSFQRKLVVWACL) [Peptide P865V, myosin 19 tail-eGFP construct with point mutation P865V]
Localization [4]: dual localization to both the ER and the mitochondria; also recorded: ER/Mito-

effect of [NaCl] on the magnitude of binding to vesicles ([2]; [NaCl] up to 1 M, peptide and vesicles 35 μM each): no effect | Kd ([2]; global fit of FA and FTI, peptide concentration 35 μM, 40 mM Hepes pH 7.1, 150 mM NaCl, read-out: apparent binding constant KD): 281 ± 50 µM
Molecule: PLQTRLLEAIIRLWPLGLVLANTAMGVGSFQRKLVVWACLQLPRG [Myo19^851-895, synthetic peptide representing Myo19 residues 851-895]

B1: IIRL*WPLGLVLANTAMGVGSF*QRKLVVWACL (protein, UniProt Q96H55 824-970, looked up, fragment)
chain: MACLAAKELDGVEEKHFSQAPCSLSTSPLQTRLLEAIIRLWPLGLVLANTAMGVGSFQRKLVVWACLQLPRGSPSSYTVQTAQDQAGVTSIRALPQGSIKFHCRKSPLRYADICPEPSPYSITGFNQILLERHRLIHVTSSAFTGLG
modifications: eGFP fusion
Localization [4]: Mito-
